Assay results taken from US11427553B2, “Dihydrooxadiazinones” (Bayer Aktiengesellschaft, priority 2017, dated 2022).

Key:
[1] = tested on: IGR-37 xenograft (Melanoma); test: Assay 3 in vivo xenotransplantation model, IGR-37; conditions: IGR-37 melanoma xenograft, mice, 10 mg/kg 2QD p.o.; * P < 0.05 vs control
Source text: In Vivo Xenotransplantation Models
The anti-tumor activities of Compounds of examples 135 and 146 were examined in murine xenotransplantation models of human cancer. For this purpose, mice were implanted subcutaneously with tumor cells. At a mean tumor size of 20-40 mm^2 animals were randomized into treatment and control groups (at least n=10 animals/group) and treatment started with vehicle only or respective Compound (formulation: 90% PEG400/10% Ethanol; application route: per os (“p.o.”), orally). The oral application volume was 10 ml/kg. In the case of twice daily treatments, the time interval between two applications per day was 6-7 h. The tumor size and the body weight were determined at least weekly. The tumor area was detected by means of an electronic caliper [length (mm)×width (mm)]. The experiment was ended when the study reached the pre-determined ethical endpoint based on German and European animal welfare regulations. In vivo anti-tumor efficacy is presented as T/C ratio at study end (Treatment/Control; mean tumor weight of treatment group/mean tumor weight of control group) in Table 8. A compound having a T/C below 0.5 is defined as active (i.e., effective). Statistical analysis was assessed using SigmaStat software. A one-way analysis of variance was performed and differences to the control were compared by a pair-wise comparison procedure (Dunn's method).

HeLa cells = test: Assay 2 cell proliferation measurement, HeLa; assay type: cell-based; conditions: Homo sapiens, Cervical, read-out: Anti-proliferation IC50 [nM] HeLa
Protocol: (§1) Cell Proliferation Measurement
(§2) The antiproliferative activity of the compounds of the general formula (I) was examined in vitro in human cancer cells. For this purpose, 500 cells, including HeLa cells, A2058 cells, DU145 cells, HMCB cells, IGR37 cells, NCIH1734 cells, OSRC2 cells, or 750 cells, including CAL51 cells, COL0741 cells, DBTRG05MG cells, DKMG cells, G292CLONEA141B1 cells, GB1 cells, HEL cells, HEL9217 cells, JHUEM1 cells, L3.3 cells, LI7 cells, TE4 cells, or 1000 cells, including 8505C cells, HUT78 cells, NCIH1563 cells, NCIH2122 cells, NCIH2172 cells, RVH421 cells, SKMEL3 cells, or 1500 cells, including C32 cells, HS578T cells, JHOM1 cells, NCIH196 cells, OVKATE cells, were plated in 384-well plates with appropriate growth medium and incubated at 37° C. overnight. After 24 h, the cells on the test plate were treated with the compounds of the general formula (I) as and incubated at 37° C. for 72 h. The compounds were added to the cells by means of an HP D300 digital dispenser in a 10 (or more)-step dilution series. As control, the cells were treated with vehicle (DMSO at 0.3% final concentration). After 72 h, the cells were treated with 20 μl/well of 50% CTG solution in PBS (Promega Cell Titer Glo (catalogue #G755B and G756B)) and incubated at room temperature for 10 min, and luminescence was measured by means of a VICTOR V (Perkin Elmer), in order to determine cell viability at the end of treatment. The percentage effect on cell growth and the IC50 derived therefrom were determined for each test substance using the values from untreated wells (=percent viability). The IC50 values were calculated using a 4-parameter fit.

NCIH1563 cells = test: Assay 2 cell proliferation measurement, NCIH1563; assay type: cell-based; conditions: Homo sapiens, NCI-H1563, Lung adenocarcinoma, read-out: Anti-proliferation IC50 [nM] NCIH1563
Protocol: as §1
as §2, with “After 24 h, the cells on the test plate were treated with the compounds of the general formula (I) as and incubated at 37° C. for 72 h. The compounds were added to the cells by means of an HP D300 digital dispenser in a 10 (or more)-step dilution series. As control, the cells were treated with vehicle (DMSO at 0.3% final concentration).” left out

DKMG cells = test: Assay 2 cell proliferation measurement, DKMG; assay type: cell-based; conditions: Homo sapiens, Glioma_astrocytoma, read-out: Anti-proliferation IC50 [nM] DKMG
Protocol: as §1, §2

C32 cells = test: Assay 2 cell proliferation measurement, C32; assay type: cell-based; conditions: Homo sapiens, Melanoma, read-out: Anti-proliferation IC50 [nM] C32
Protocol: as §1, §2

IGR37 cells = test: Assay 1 cell proliferation measurement (CTG, 72 h), IGR37; assay type: cell-based; conditions: Homo sapiens, IGR-37, Cell Titer Glo, read-out: IGR37 IC50 [nM] (melanoma)
NCIH2172 cells = test: Assay 2 cell proliferation measurement, H2172; assay type: cell-based; conditions: Homo sapiens, NCI-H2172, Lung non small cell carcinoma, read-out: Anti-proliferation IC50 [nM] H2172
Protocol: as §1, §2

DK-MG cells = test: Assay 1 cell proliferation measurement, DK-MG; assay type: cell-based; conditions: Homo sapiens; Glioblastoma; read-out: Anti-proliferation IC50 [nM] DK-MG
human full length PDE3B = human full length PDE3B (Homo sapiens (Human), UniProt Q13370); test: Assay 5 PDE3B enzyme inhibition (3H-cAMP SPA); assay type: biochemical; conditions: Sf9 cell extract
How it was run: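 Inhibition was measured by scintillation proximity using [8-3H]adenosine 3′,5′-cyclic phosphate as substrate and full-length human PDE3B from an Sf9 overexpression extract, run one hour at room temperature at pH 7.5.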

Hs 578T cells = test: Assay 1 cell proliferation measurement, Hs 578T; assay type: cell-based; conditions: Homo sapiens, Breast, read-out: Anti-proliferation IC50 [nM] Hs 578T
PA-1 cells = test: Assay 1 cell proliferation measurement, PA-1; assay type: cell-based; conditions: Homo sapiens, Ovarian teratocarcinoma, read-out: Anti-proliferation IC50 [nM] PA-1
CHL-1 cells = test: Assay 1 cell proliferation measurement, CHL-1; assay type: cell-based; conditions: Homo sapiens, Melanoma, read-out: Anti-proliferation IC50 [nM] CHL-1
IGR-1 cells = test: Assay 1 cell proliferation measurement, IGR-1; assay type: cell-based; conditions: Homo sapiens, Melanoma, read-out: Anti-proliferation IC50 [nM] IGR-1

Sequence of human full length PDE3B (Q13370 whole entry): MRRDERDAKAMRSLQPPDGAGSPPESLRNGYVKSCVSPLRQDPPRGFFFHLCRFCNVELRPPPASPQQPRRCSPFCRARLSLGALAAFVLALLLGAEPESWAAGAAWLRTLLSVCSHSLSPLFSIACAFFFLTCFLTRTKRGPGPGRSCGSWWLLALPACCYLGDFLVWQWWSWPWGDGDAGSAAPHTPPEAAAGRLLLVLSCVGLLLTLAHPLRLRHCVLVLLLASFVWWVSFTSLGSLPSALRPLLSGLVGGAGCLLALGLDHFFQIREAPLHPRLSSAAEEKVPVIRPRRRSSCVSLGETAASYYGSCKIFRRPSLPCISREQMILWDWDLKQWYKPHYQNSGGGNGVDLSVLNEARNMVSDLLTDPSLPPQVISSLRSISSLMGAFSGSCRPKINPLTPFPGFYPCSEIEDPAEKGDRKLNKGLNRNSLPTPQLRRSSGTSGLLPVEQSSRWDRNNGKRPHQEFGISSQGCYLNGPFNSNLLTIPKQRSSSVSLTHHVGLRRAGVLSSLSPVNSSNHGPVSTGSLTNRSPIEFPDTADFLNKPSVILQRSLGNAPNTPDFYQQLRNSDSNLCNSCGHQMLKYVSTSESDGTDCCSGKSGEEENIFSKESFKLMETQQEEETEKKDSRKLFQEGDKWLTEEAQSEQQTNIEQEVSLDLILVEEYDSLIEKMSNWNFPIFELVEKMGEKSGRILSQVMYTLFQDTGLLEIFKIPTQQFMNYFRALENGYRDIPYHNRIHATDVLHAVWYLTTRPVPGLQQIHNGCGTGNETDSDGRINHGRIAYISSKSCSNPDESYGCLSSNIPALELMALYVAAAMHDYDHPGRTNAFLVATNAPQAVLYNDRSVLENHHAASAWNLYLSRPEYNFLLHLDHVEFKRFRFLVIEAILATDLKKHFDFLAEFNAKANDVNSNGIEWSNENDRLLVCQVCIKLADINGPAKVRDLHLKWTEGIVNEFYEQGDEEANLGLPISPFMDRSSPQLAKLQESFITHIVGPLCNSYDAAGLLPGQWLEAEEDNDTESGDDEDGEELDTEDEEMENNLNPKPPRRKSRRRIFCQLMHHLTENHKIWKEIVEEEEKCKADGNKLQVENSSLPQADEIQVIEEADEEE

Row | SMILES | IC50 (HeLa cells) [nM] | IC50 (NCIH2172 cells) [nM] | IC50 (human full length PDE3B) [nM] | T/C (mean final tumor weight treatment / control) [1] | IC50 (NCIH1563 cells) [nM] | IC50 (DKMG cells) [nM] | IC50 (C32 cells) [nM] | IC50 (IGR37 cells) [nM] | IC50 (DK-MG cells) [nM] | IC50 (Hs 578T cells) [nM] | IC50 (PA-1 cells) [nM] | IC50 (CHL-1 cells) [nM] | IC50 (IGR-1 cells) [nM]
1 | C[C@@H]1OC(=O)NN=C1c1ccc(-n2ccc(C(F)(F)F)n2)c(C(F)(F)F)c1 [Example 265, (6S)-6-Methyl-5-{3-(trifluoromethyl)-4-[3-(trifluoromethyl)-1H-pyrazol-1-yl]phenyl}-3,6-dihydro-2H-1,3,4-oxadiazin-2-one] | 5 | 101 | – | 0.27* | 46 | 59 | 132 | 7 | – | – | – | – | –
2 | O=C1NN=C(c2ccc(-c3cnn(C(F)F)c3)c(C(F)(F)F)c2)CO1 [Example 146, 5-{4-[1-(Difluoromethyl)-1H-pyrazol-4-yl]-3-(trifluoromethyl)phenyl}-3,6-dihydro-2H-1,3,4-oxadiazin-2-one] | 2 | 37 | 80 | 0.05* | – | 13 | 52 | 2 | 12 | 28 | 12 | 8 | –
3 | C[C@@H]1OC(=O)NN=C1c1ccc(-c2ccc(F)cc2)c(C(F)(F)F)c1 [Example 135, (6S)-5-[4′-Fluoro-2-(trifluoromethyl)biphenyl-4-yl]-6-methyl-3,6-dihydro-2H-1,3,4-oxadiazin-2-one] | 2 | 38 | 50 | 0.06* | 18 | 22 | 58 | 3 | – | – | – | – | > 100

More lines, main results first:

Row | IC50 (HeLa cells) [nM] | IC50 (NCIH2172 cells) [nM] | IC50 (human full length PDE3B) [nM] | SMILES | T/C (mean final tumor weight treatment / control) [1] | IC50 (NCIH1563 cells) [nM] | IC50 (DKMG cells) [nM] | IC50 (C32 cells) [nM] | IC50 (IGR37 cells) [nM] | IC50 (DK-MG cells) [nM] | IC50 (Hs 578T cells) [nM] | IC50 (PA-1 cells) [nM] | IC50 (CHL-1 cells) [nM] | IC50 (IGR-1 cells) [nM]
4 | – | – | 603 | O=C1NN=C(c2ccc(-c3ccc(Cl)cc3)c(C(F)(F)F)c2)CO1 [Example 31, 5-[4′-Chloro-2-(trifluoromethyl)biphenyl-4-yl]-3,6-dihydro-2H-1,3,4-oxadiazin-2-one] | – | – | – | – | 14 | 39 | > 100 | 39 | 28 | –
5 | – | – | 197 | O=C1NN=C(c2ccc(-c3ccc(F)cc3)c(C(F)(F)F)c2)CO1 [Example 3, 5-[4′-Fluoro-2-(trifluoromethyl)biphenyl-4-yl]-3,6-dihydro-2H-1,3,4-oxadiazin-2-one] | – | – | – | – | – | 21 | 29 | 22 | 9 | 99
